One experiment addresses T1, human recombinant MAO-A (Homo sapiens, UniProt P21397).
T1 construct: purchased Sigma-Aldrich Química S.A., Alcobendas, Spain; host or cells: insect cells (BTI-TN-5B1-4) infected with recombinant baculovirus
T1 sequence (P21397 1-527): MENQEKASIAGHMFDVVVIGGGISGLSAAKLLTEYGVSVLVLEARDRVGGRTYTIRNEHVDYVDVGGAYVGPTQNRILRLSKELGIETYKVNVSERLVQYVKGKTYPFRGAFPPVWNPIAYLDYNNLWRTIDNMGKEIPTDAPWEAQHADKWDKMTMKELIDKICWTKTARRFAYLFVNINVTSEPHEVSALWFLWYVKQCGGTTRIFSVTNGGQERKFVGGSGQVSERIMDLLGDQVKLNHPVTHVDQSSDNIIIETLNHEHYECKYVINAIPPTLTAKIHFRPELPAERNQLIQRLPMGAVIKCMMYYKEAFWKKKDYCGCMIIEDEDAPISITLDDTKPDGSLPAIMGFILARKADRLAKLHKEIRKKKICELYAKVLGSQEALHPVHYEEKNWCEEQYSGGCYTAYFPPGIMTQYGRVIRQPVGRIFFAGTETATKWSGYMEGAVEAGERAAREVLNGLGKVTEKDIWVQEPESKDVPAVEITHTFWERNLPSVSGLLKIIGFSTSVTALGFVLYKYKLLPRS
Nature of the experiment: Determination of MAO isoforms activity (Amplex Red, p-tyramine), MAO-A. The following applies: read-out: IC50 hMAO-A. It is filed as biochemical.

The next experiment deals with T2, human recombinant MAO-B (Homo sapiens, UniProt P27338).
T2 construct: purchased Sigma-Aldrich Química S.A., Alcobendas, Spain; host or cells: insect cells (BTI-TN-5B1-4) infected with recombinant baculovirus
T2 sequence (P27338 1-520): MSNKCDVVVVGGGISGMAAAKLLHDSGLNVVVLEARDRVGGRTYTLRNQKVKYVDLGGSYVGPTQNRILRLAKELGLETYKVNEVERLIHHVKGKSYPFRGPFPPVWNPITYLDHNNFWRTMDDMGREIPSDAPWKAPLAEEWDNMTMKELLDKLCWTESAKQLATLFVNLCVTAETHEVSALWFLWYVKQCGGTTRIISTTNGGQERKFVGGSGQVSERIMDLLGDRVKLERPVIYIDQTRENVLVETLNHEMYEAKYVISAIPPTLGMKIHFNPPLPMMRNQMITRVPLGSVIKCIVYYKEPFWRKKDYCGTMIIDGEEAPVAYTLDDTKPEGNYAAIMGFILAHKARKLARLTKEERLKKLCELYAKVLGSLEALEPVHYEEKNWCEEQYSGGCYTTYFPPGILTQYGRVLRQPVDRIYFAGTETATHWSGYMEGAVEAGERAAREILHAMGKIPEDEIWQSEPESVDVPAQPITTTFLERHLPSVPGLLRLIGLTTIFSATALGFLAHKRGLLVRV
The experiment is described as follows: Determination of MAO isoforms activity (Amplex Red, p-tyramine), MAO-B. The class given is biochemical. The following applies: for S.I. Selectivity index hMAO-B = IC50 (hMAO-A)/IC50 (hMAO-B): bounds calculated taking the highest concentration studied (100 μM or 1 mM) as IC50; for IC50: read-out: IC50 hMAO-B.

[1] abbreviates: human recombinant MAO-B, p-tyramine 1 mM, mean ± spread of 5 experiments.

Like-named read-outs stand apart in the source and are kept apart here. Marks after values point to notes of the source that are not given here.

The IC50 is the concentration needed to halve the response being measured. As for `O=c1c(CSC(=S)N2CCCC2)ccnn1Cc1ccccc1` [IIIc3, 1-benzyl-6-oxo-1,6-dihydropyridazin-5-ylmethyl Pyrrolidin-1-ylcarbodithioate], the half-maximal inhibitory concentration (IC50) was above 100 µM at human recombinant MAO-A and 34 ± 2.26 µM on human recombinant MAO-B (setting [1]). Besides, the “S.I. Selectivity index hMAO-B = IC50 (hMAO-A)/IC50 (hMAO-B)” value (“S.I. Selectivity index hMAO-B = IC50” for short) on human recombinant MAO-B was >2.9^b.

On to `O=c1c(CSC(=S)N2CCOCC2)ccnn1Cc1ccccc1` [IIIc5, 1-benzyl-6-oxo-1,6-dihydropyridazin-5-ylmethyl Morpholin-4-ylcarbodithioate], for which the IC50 on human recombinant MAO-A is above 100 µM; on human recombinant MAO-B (setting [1]), 24.1 ± 1.6 µM. The “S.I. Selectivity index hMAO-B = IC50” value on human recombinant MAO-B was >4.2^b.

Turning to `O=C(c1ccccc1)N1CCN(C(=S)SCc2ccnn(Cc3ccccc3)c2=O)CC1` [IIIc11, 1-benzyl-6-oxo-1,6-dihydropyridazin-5-ylmethyl 4-benzoylpiperazin-1-ylcarbodithioate], the IC50 on human recombinant MAO-A and on human recombinant MAO-B was above 100 µM throughout.

With `CCN(CC)C(=S)SCc1cnn(Cc2ccccc2)c(=O)c1` [IIc2, 1-benzyl-6-oxo-1,6-dihydropyridazin-4-ylmethyl N,N-diethyldithiocarbamate], the figures for the IC50 on human recombinant MAO-A and at human recombinant MAO-B (setting [1]) were above 100 µM and 44.2 ± 2.95 µM, respectively. Further, the “S.I. Selectivity index hMAO-B = IC50” value on human recombinant MAO-B is >2.3^b.

In the case of `O=c1cc(CSC(=S)N2CCCC2)cnn1Cc1ccccc1` [IIc3, 1-benzyl-6-oxo-1,6-dihydropyridazin-4-ylmethyl Pyrrolidin-1-ylcarbodithioate], on human recombinant MAO-B, the “S.I. Selectivity index hMAO-B = IC50” value is on record as 10.3. Moreover, on human recombinant MAO-B (setting [1]), the IC50 stood at 9.68 ± 0.65 µM.

On to `O=c1cc(CSC(=S)N2CCCCC2)cnn1Cc1ccccc1` [IIc4, 1-benzyl-6-oxo-1,6-dihydropyridazin-4-ylmethyl Piperidin-1-ylcarbodithioate], for which the IC50 on human recombinant MAO-A is above 100 µM; on human recombinant MAO-B (setting [1]), 6.71 ± 0.45 µM. For the same compound, the “S.I. Selectivity index hMAO-B = IC50” value at human recombinant MAO-B is listed as >15^b.

With `O=c1cc(CSC(=S)N2CCOCC2)cnn1Cc1ccccc1` [IIc5, 1-benzyl-6-oxo-1,6-dihydropyridazin-4-ylmethyl Morpholin-4-ylcarbodithioate], the 50% inhibitory concentration (IC50) on human recombinant MAO-A is above 100 µM.

As for `O=C(c1ccccc1)N1CCN(C(=S)SCc2cnn(Cc3ccccc3)c(=O)c2)CC1` [IIc11, 1-benzyl-6-oxo-1,6-dihydropyridazin-4-ylmethyl 4-benzoylpiperazin-1-ylcarbodithioate], the half-maximal inhibitory concentration (IC50) at human recombinant MAO-A and at human recombinant MAO-B was above 100 µM throughout.

Regarding `Cn1nc(CCSC(=S)N2CCCCC2)ccc1=O` [Ia15, 2-(1-methyl-6-oxo-1,6-dihydropyridazin-3-yl)ethyl Piperidin-1-ylcarbodithioate], the half-inhibitory concentration (IC50) on human recombinant MAO-A was above 100 µM; at human recombinant MAO-B (setting [1]), 11.9 ± 0.53 µM. In addition, the “S.I. Selectivity index hMAO-B = IC50” value on human recombinant MAO-B is listed as >8.4^b.

As for `Cn1nc(CCCSC(=S)N2CCCC2)ccc1=O` [Ia25, 3-(1-methyl-6-oxo-1,6-dihydropyridazin-3-yl)propyl Pyrrolidin-1-ylcarbodithioate], the 50% inhibitory concentration (IC50) at human recombinant MAO-A is above 100 µM; on human recombinant MAO-B (setting [1]), 66.5 ± 4.43 µM. Besides, the “S.I. Selectivity index hMAO-B = IC50” value on human recombinant MAO-B is >1.5^b.

For `Cc1cc(=O)n(C)nc1CSC(=S)N1CCCC1` [Id3, 1,4-dimethyl-6-oxo-1,6-dihydropyridazin-3-ylmethyl Pyrrolidin-1-ylcarbodithioate], the half-inhibitory concentration (IC50) was above 100 µM at human recombinant MAO-A and above 1000 µM on human recombinant MAO-B.

For `Cc1cc(=O)n(C)nc1CSC(=S)N1CCCCC1` [Id4, 1,4-dimethyl-6-oxo-1,6-dihydropyridazin-3-ylmethyl Piperidin-1-ylcarbodithioate], the “S.I. Selectivity index hMAO-B = IC50” value on human recombinant MAO-B is 13.4. The IC50 at human recombinant MAO-B (setting [1]) was 7.48 ± 0.34 µM.

`Cc1cc(=O)n(C)nc1CSC(=S)N1CCOCC1` [Id5, 1,4-dimethyl-6-oxo-1,6-dihydropyridazin-3-ylmethyl morpholin-4-ylcarbodithioate]: the “S.I. Selectivity index hMAO-B = IC50” value on human recombinant MAO-B is 2.6. In addition, the half-inhibitory concentration (IC50) on human recombinant MAO-B (setting [1]) turned out to be 38.6 ± 1.74 µM.

Consider `Cc1cc(=O)n(C)nc1CSC(=S)N1CCN(C(=O)c2ccccc2)CC1` [Id11, 1,4-dimethyl-6-oxo-1,6-dihydropyridazin-3-ylmethyl 4-benzoylpiperazin-1-ylcarbodithioate], for which the “S.I. Selectivity index hMAO-B = IC50” value at human recombinant MAO-B is listed as 2.2. In addition, the half-inhibitory concentration (IC50) at human recombinant MAO-B (setting [1]) was determined as 44.5 ± 2 µM.
